Test results from ChEMBL document CHEMBL4699499, “Biochemical, cellular and structural characterization of novel and selective ERK3 inhibitors” (Bioorg Med Chem Lett, 2020).

Assays:
[1] = target: T1, Mitogen-activated protein kinase 6 (Homo sapiens, UniProt Q16659); experiment: Binding affinity to LPP-dephosphorylated recombinant wild-type ERK3 (9 to 327 residues) (unknown origin) expressed in Escherichia coli by microscale thermophoresis assay
[2] = target: T1, Mitogen-activated protein kinase 6; experiment: Binding affinity to recombinant wild-type ERK3 (9 to 327 residues) (unknown origin) expressed in Escherichia coli by microscale thermophoresis assay
[3] = target: T1, Mitogen-activated protein kinase 6; experiment: Binding affinity to wild-type human partial length ERK3 (M1 to P413 residues) expressed in bacterial expression system by kinomescan method
[4] = target: T1, Mitogen-activated protein kinase 6; experiment: Binding affinity to recombinant wild-type ERK3 (9 to 327 residues) (unknown origin) expressed in Sf21 insect cells by microscale thermophoresis assay

T1 sequence (Q16659 whole entry, the tested form may be a part): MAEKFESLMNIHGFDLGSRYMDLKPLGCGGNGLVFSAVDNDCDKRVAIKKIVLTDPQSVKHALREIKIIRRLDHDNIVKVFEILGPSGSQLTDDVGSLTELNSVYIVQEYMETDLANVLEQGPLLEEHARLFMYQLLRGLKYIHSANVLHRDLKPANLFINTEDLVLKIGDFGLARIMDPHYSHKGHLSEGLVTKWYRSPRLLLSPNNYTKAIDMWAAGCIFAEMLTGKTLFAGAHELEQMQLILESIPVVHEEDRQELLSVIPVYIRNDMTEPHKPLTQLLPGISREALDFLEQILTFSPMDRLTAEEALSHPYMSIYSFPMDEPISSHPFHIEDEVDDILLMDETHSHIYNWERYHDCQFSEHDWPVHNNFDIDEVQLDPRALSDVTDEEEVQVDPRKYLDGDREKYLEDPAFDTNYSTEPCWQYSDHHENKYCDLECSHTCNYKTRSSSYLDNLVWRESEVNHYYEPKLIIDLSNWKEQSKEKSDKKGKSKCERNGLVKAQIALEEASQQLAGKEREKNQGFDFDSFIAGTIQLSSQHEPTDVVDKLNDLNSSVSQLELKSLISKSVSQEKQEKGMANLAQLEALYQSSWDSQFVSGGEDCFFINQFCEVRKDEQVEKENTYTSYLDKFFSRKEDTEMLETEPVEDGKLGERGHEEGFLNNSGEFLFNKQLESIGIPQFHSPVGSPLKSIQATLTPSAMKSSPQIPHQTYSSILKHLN

Kd [1] [µM]	Kd [2] [µM]	Kd [3] [µM]	Kd [4] [µM]	Structure (SMILES)
> 10				Nc1n[nH]c2nnc(-c3c(-c4ccccc4)nn4ccccc34)cc12
	14.3			O=C(Nc1ccc2[nH]nc(-c3ccncc3)c2c1)[C@@H]1CCN(CC(=O)N2CCN(c3ccc(-c4ncccn4)cc3)CC2)C1
1.5	1.3	0.98	1.1	COc1ccc(-n2nnc3cnc(N[C@H]4CC[C@H](C(N)=O)CC4)nc32)cc1
